From patent publication US20100028889A1, “COMPANION DIAGNOSTIC ASSAYS FOR CANCER THERAPY” (ABBOTT LABORATORIES, priority 2006, published 2010)

Assays:
[1] = tested on: SCLC cell lines; experiment: categorisation of the SCLC cell line panel by EC50; type: cell-based, human; details: EC50 less than or equal to 4.1 μM
Protocol: (§1) Cells were treated at 10,000 or 50,000 cells per well for adherent or suspension cells, respectively, in 96-well microtiter plates in the presence of 10% human serum for 48 hours with or without ABT-263, in a humidified chamber with 5% CO2. ABT-263 was synthesized as previously described in Tse, C., Shoemaker, A. R., Adickes, J., et al., “ABT-263: a potent and orally bioavailable Bcl-2 family inhibitor,” Cancer Res 2008; 68: 3421-3428; and Oltersdorf, T., Elmore, S. W., Shoemaker, A. R., et al., “An inhibitor of Bcl-2 family proteins induces regression of solid tumours,” Nature 2005; 435: 677-681, and cell cytotoxicity EC50 values were assessed using CellTiter Glo (Promega, Madison Wis.).
(§2) o divide the training set cell lines into sensitive and resistant categories, a bivariate fit curve was generated for the ABT-263 EC50 versus rank and fitted with a smoothing spline (lambda=1), and the maximum increase in the slope was approximately 5 μM for both sets. […]
(§3) Division of cell lines into sensitive and resistant categories. […] To identify gene expression patterns that can predict sensitivity to ABT-263, as well as genes that might contribute to resistance to treatment, RNA expression profiles for a panel of SCLC cell lines were determined, as well as a panel of leukemia and lymphoma cell lines. […]

[2] = tested on: leukemia/lymphoma cell lines; experiment: categorisation of the leukemia/lymphoma cell line panel by EC50; type: cell-based, human; details: EC50 less than or equal to 4.8 μM
Protocol: as §1, §2, §3

[3] = tested on: NCI-H524; experiment: sensitivity of SCLC cell line, procedure of Oltersdorf; type: cell-based; details: Homo sapiens, read-out: sensitivity class by EC50
Protocol: (§4) The following SCLC cell lines were obtained from ATCC (Manassis, Va.): NCI-H889, NCI-H1963, NCI-H1417, NCI-H146, NCI-H187, DMS53, NCI-H510, NCI-H209, NCI-H211, NCI-H345, NCI-H524, NCI-H69, DMS79, SHP77, NCI-H1688, NCI-H446, NCI-H740, NCI-H1048, NCI-H82, NCI-H196, SW1271, H69AR, NCI-H526, NCI-H865, NCI-H748, NCI-H711, and DMS114. All cells were cultured in the ATCC recommended media at 37° C. in a humidified atmosphere containing 5% CO2. The following leukemia and lymphoma cell lines were obtained from ATCC (Manassis, Va.): MV-4-11, RS4;11, Loucy, KG-1A, DOHH2, Rs11380, CCRF-HSB-2, CCRF-CEM, CEM/C1, Reh, SUP-B15, MOLT-4, SUDHL4, HL-60, RPMI 8226, A3, Daudi, WSU-NHL, Pfeiffer, Jurkat I 9.2, Jurkat, MEG-01, U-937, K-562, and Raji.
(§5) The 27 SCLC cell lines were tested for sensitivity to ABT-737 using the procedure described in Oltersdorf, T., “An inhibitor of Bcl-2 family proteins induces regression of solid tumours”, Nature, 435: 677-681, 2005, with a cell line classified as sensitive if its EC50<5 μM and as resistant if its EC50>5 µM. The sensitive cell line group consisted of NCI-H889, NCI-H1963, NCI-H1417, NCI-H146, DMS 53, NCI-H187, NCI-H510, NCI-H209, NCI-H345, NCI-H526, NCI-H211, NCI-H865, NCI-H524, NCI-H748, DMS 79, NCI-H69, NCI-H711, SHP 77, NCI-H1688, and the resistant cell line group was comprised of NCI-H446, NCI-H740, NCI-H1048, NCI-H82, NCI-H196, SW1271, DMS 114, and NCI-H69AR.

[4] = tested on: NCI-H526; experiment: as above; type: cell-based; details: Homo sapiens, read-out: sensitivity class by EC50
Protocol: as §4, §5

[5] = tested on: NCI-H711; experiment: as above; type: cell-based; details: Homo sapiens, read-out: sensitivity class by EC50
Protocol: as §4, §5

[6] = tested on: NCI-H748; experiment: as above; type: cell-based; details: Homo sapiens, read-out: sensitivity class by EC50
Protocol: as §4, §5

[7] = tested on: NCI-H865; experiment: as above; type: cell-based; details: Homo sapiens, read-out: sensitivity class by EC50
Protocol: as §4, §5

[8] = tested on: solid tumors; details: in vivo; cited from earlier work
[9] = tested on: diverse panel of human cancer cell lines; details: cited from earlier work

SMILES	SCLC cell lines categorized as being sensitive [1]	leukemia/lymphoma cell lines categorized as being sensitive [2]	EC50 [3]	EC50 [4]	EC50 [5]	EC50 [6]	EC50 [7]	effect on solid tumors [8]	potency across a diverse panel of human cancer cell lines [9]
CC1(C)CCC(c2ccc(Cl)cc2)=C(CN2CCN(c3ccc(C(=O)NS(=O)(=O)c4ccc(N[C@H](CCN5CCOCC5)CSc5ccccc5)c(S(=O)(=O)C(F)(F)F)c4)cc3)CC2)C1 [ABT-263, N-(4-(4-((2-(4-chlorophenyl)-5,5-dimethyl-1-cyclohex-1-en-1-yl)methyl)piperazin-1-yl)benzoyl)-4-(((1R)-3-(morpholin-4-yl)-1-((phenylsulfanyl)methyl)propyl)amino)-3-((trifluoromethyl)sulfonyl)benzenesulfonamide]	26 out of 36	25 out of 31							
CN(C)CC[C@H](CSc1ccccc1)Nc1ccc(S(=O)(=O)NC(=O)c2ccc(N3CCN(Cc4ccccc4-c4ccc(Cl)cc4)CC3)cc2)cc1[N+](=O)[O-] [ABT-737, N-(4-(4-((4′-chloro(1,1′-biphenyl)-2-yl)methyl)piperazin-1-yl)benzoyl)-4-(((1R)-3-(dimethylamino)-1-((phenylsulfanyl)methyl)propyl)amino)-3-nitrobenzenesulfonamide]			< 5 µM	< 5 µM	< 5 µM	< 5 µM	< 5 µM	induce regression of solid tumors	selective potency against SCLC and lymphoma cell lines
